According to patent publication US4563527A, “Amidine compounds” (Torii & Co., Ltd., priority 1984, dated 1986):

Legend:
Kallikrein = experiment: Anti-kallikrein activity (hydrolysis of TAME); type: biochemical; conditions: for IC50: molar concentration inhibiting 50% of TAME hydrolysis, read-out: ID50 kallikrein
Method: (§1) The anti-trypsin, anti-plasmin, anti-kallikrein and anti-thrombin activities were determined according to the method of Muramatsu et al. [M. Muramatus, T. Onishi, S. Makino, Y. Hayashi and S. Fujii, J. of Biochem., 58, 214 (1965)]. The data summarized in Table 1 are expressed in terms of molar concentration (ID50) of the test compound which inhibits 50% of the activity of each enzyme to hydrolyze TAME (tosylalginine methyl ester). The compound No. corresponds to the compound number shown in Examples.

Plasmin = Plasmin (Homo sapiens, UniProt P00747); experiment: Anti-plasmin activity (hydrolysis of TAME); type: biochemical; conditions: molar concentration inhibiting 50% of TAME hydrolysis; read-out: ID50 plasmin
Plasmin, sequence (P00747 581-810 limits assumed, species assumed): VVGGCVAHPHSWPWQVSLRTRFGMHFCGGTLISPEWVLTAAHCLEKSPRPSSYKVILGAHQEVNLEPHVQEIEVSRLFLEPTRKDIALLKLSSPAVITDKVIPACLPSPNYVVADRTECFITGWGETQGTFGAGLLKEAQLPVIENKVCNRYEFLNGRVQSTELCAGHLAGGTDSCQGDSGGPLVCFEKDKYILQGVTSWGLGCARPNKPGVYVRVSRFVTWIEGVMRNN
Plasmin, sequence (P00747 97-580 partner limits assumed, species assumed): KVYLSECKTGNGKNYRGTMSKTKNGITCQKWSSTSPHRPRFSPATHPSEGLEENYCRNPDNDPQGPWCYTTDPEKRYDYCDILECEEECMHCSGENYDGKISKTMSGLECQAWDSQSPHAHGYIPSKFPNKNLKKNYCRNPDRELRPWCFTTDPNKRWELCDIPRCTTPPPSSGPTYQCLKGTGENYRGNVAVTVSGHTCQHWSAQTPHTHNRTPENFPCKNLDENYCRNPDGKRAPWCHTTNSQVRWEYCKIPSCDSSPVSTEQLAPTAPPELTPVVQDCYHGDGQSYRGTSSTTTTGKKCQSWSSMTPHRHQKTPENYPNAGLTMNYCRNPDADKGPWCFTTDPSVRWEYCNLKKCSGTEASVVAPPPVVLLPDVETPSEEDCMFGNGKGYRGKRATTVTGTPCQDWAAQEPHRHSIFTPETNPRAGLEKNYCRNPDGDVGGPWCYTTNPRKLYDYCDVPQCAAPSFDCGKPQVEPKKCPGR
Method: The anti-trypsin, anti-plasmin, anti-kallikrein and anti-thrombin activities were determined according to the method of Muramatsu et al. [M. Muramatus, T. Onishi, S. Makino, Y. Hayashi and S. Fujii, J. of Biochem., 58, 214 (1965)]. […] The compound No. corresponds to the compound number shown in Examples.

C1s = target: T1, C1s (Homo sapiens, UniProt P09871); experiment: Anti-C1s activity (hydrolysis of ATEE); type: biochemical; conditions: molar concentration inhibiting 50% of ATEE hydrolysis; read-out: ID50 C1s (Anti-C1 activity)
T1 sequence (P09871 438-688 limits assumed): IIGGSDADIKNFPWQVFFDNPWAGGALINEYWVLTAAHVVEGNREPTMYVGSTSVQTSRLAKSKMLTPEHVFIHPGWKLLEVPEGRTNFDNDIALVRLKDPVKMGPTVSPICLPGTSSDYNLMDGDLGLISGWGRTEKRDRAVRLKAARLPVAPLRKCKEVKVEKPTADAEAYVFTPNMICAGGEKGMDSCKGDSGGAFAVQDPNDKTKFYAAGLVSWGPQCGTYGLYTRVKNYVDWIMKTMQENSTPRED
T1 sequence (P09871 16-437 partner limits assumed): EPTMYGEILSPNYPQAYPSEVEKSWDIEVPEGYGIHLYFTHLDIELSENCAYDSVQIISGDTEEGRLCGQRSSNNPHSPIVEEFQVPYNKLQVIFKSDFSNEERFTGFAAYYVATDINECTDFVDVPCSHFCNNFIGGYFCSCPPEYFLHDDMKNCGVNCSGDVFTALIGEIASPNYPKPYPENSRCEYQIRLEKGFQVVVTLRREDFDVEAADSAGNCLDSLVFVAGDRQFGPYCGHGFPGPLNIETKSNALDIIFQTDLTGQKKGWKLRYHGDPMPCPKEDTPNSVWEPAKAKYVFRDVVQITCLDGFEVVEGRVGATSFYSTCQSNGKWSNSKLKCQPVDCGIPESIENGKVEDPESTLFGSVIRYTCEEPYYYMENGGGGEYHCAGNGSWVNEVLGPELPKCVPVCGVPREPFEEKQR
Method: The anti-C1 esterase (C1r, C1s) activity was determined according to the method of Okamura et al. [K. Okamura, M. Muramatsu and B. Fujii, Biochem. Biophys. Acta, 295, 252-257 (1973)]. The inhibition of complement mediated hemolysis was determined according to the method of Baker et al. [B. R. Baker and E. H. Erickson, J. Med. Chem. 12, 408-414 (1969)]. The figures in Table 2 have the following meanings:
C1s: Molar concentration of the test compound which inhibits 50% of the ability of C1s to hydrolyse ATEE (acetyltyrosin ethyl ester) (ID50).

complement = experiment: Inhibition of complement mediated hemolysis; type: cell-based
Method: The complement mediated hemolysis is widely used as a means to determine the titration of complement. The principle of this method is based on the fact that hemolysis is caused by the activation of complement, when the latter is added to a complex (immune complex) of erythrocytes and the antibody thereof. The degree of hemolysis varies in proportion to the amount of complement added. Therefore, when a known amount of complement admixed with a C1 esterase inhibitor is used, the hemolysis must be suppressed in proportion to the inhibitory activity.
The anti-C1 esterase (C1r, C1s) activity was determined according to the method of Okamura et al. [K. Okamura, M. Muramatsu and B. Fujii, Biochem. Biophys. […] The figures in Table 2 have the following meanings: […]

C1r = target: T2, C1r (Homo sapiens, UniProt P00736); experiment: biochemical; conditions: molar concentration inhibiting 50% of AAME hydrolysis; read-out: ID50 C1r (Anti-C1 activity)
T2 sequence (P00736 464-705 limits assumed): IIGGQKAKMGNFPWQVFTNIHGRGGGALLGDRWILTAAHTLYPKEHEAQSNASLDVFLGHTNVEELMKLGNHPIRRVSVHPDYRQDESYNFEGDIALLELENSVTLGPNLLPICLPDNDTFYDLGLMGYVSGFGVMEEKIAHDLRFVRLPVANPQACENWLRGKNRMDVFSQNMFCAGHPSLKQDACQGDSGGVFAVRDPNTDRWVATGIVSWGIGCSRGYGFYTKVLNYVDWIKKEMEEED
T2 sequence (P00736 18-463 partner limits assumed): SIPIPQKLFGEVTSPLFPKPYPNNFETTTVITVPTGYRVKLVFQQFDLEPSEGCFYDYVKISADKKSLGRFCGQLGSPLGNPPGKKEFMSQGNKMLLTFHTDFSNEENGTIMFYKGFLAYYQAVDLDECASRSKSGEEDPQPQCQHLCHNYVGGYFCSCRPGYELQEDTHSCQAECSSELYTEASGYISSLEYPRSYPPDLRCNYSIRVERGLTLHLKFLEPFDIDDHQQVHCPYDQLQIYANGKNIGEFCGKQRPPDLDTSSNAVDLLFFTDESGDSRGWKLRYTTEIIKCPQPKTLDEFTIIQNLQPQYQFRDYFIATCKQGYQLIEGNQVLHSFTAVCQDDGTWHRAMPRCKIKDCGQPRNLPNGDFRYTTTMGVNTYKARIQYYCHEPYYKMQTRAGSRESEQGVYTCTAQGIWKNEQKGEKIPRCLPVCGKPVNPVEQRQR

Trypsin = target: T3, Trypsin (Bos taurus, UniProt P00760); experiment: Anti-trypsin activity (hydrolysis of TAME); type: biochemical; conditions: molar concentration inhibiting 50% of TAME hydrolysis; read-out: ID50 trypsin
T3 sequence (P00760 24-246): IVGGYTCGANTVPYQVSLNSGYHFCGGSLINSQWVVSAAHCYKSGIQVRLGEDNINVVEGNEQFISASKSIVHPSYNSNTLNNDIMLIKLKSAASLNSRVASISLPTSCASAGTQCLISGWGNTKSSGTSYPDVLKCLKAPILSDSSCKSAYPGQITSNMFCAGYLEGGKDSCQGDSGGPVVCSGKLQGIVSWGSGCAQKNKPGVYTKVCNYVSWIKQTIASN
Method: as §1

Thrombin = Thrombin (Homo sapiens, UniProt P00734); experiment: biochemical; conditions: molar concentration inhibiting 50% of TAME hydrolysis; read-out: ID50 thrombin

Structure (SMILES)	IC50 (Kallikrein) [nM]	IC50 (Plasmin) [nM]	IC50 (C1s) [nM]	Inhibition of complement mediated hemolysis (%) (complement; 1 × 10^-5)	Inhibition of complement mediated hemolysis (%) (complement; 1 × 10^-6)	Inhibition of complement mediated hemolysis (%) (complement; 1 × 10^-7)	IC50 (C1r) [nM]	IC50 (Trypsin) [nM]	IC50 (Thrombin) [nM]	percentage inhibition of kallikrein (Kallikrein; figure in parentheses, at 1×10^-5 M, TAME) [%]
CN(C)Cc1ccc(C(=O)Oc2ccc3cc(C(=N)N)ccc3c2)o1 [compound 23]	3000	2000	2000	100	95	76	3000	500	4000	
N=C(N)c1ccc2cc(OC(=O)c3ccc(NC(=O)C4CCC(CN)CC4)o3)ccc2c1 (stereo not shown) [compound 37]	400	400	400	99	78	12	3000	700	900	
N=C(N)NCCc1ccc(C(=O)Oc2ccc3cc(C(=N)N)ccc3c2)o1 [compound 9]		6000	3000	100	100	94	400	900	1000	47
N=C(N)c1ccc2cc(OC(=O)c3ccc(CNC4=NCCN4)o3)ccc2c1 [compound 11]	400	2000	500	100	100	43	500	3000	400	
CNC(=N)NCc1ccc(C(=O)Oc2ccc3cc(C(=N)N)ccc3c2)o1 [compound 6]	400	3000	1000	100	100	100	500	4000	2000	
CCNC(=NC)NCc1ccc(C(=O)Oc2ccc3cc(C(=N)N)ccc3c2)o1 [compound 7]	400	700	2000	100	100	98	1000	2000	2000	
N=C(N)c1ccc2cc(OC(=O)c3ccc(CNC(=O)OCc4ccccc4)o3)ccc2c1 [compound 19]	700	300	300	97	97	93	200	200	200	
N=C(N)c1ccc2cc(OC(=O)c3ccc(CNC(=O)C(N)COCc4ccccc4)o3)ccc2c1 (stereo not shown) [compound 36]	600	600	4000	100	100	68	500	200	300	
N=C(N)c1ccc2cc(OC(=O)c3ccc(CNC(=O)CCN)o3)ccc2c1 [compound 34]	300	2000	500	100	100	58	500		500	
N=C(N)c1ccc2cc(OC(=O)c3ccc(NC4=NCCN4)o3)ccc2c1 [compound 10]	400	3000	300	100	100	91	5000	40	200	
CCN=C(NCC)NCc1ccc(C(=O)Oc2ccc3cc(C(=N)N)ccc3c2)o1 [compound 8]	400	800	2000	100	100	98	800	2000	1000	
N=C(N)c1ccc2cc(OC(=O)c3ccc(CCNC(=O)C4CCC(CN)CC4)o3)ccc2c1 (stereo not shown) [compound 39]	500	400	4000	100	100	71	400	800	2000	
N=C(N)c1ccc2cc(OC(=O)c3ccc(CNC(=O)CCNC(=O)OCc4ccccc4)o3)ccc2c1 [compound 20]				100	98	43				
CN=C(NC)NCc1ccc(C(=O)Oc2ccc3cc(C(=N)N)ccc3c2)o1 [Compound No. 2, 6-amidino-2-naphthyl 5-(2,3-dimethyl)guanidinomethyl-furan-2-carboxylate]		800	1000	100	100	91	1000	2000	900	
